Measured values published in patent US20170107254A1, “Modified Antimicrobial Peptides” (priority 2014, published 2017).
≈ marks a conversion by molar mass, not a printed value. Like-named read-outs stand apart in the source and are kept apart here. No end group written: not given here.

How the values were obtained:
C. albicans SC5314 [1] = test system: C. albicans SC5314
Experimental: (B) Efficacy of AMPs of same length was evaluated by MIC after 24 incubation at 37° C. Data is expressed as percentage of the positive growth controls. Data is the mean±standard error of the mean (n=3).
The efficacy of AMPs was determined versus C. albicans SC5314 before evaluating the effect of pH on activity.

[2] = test system: A. fumigatus (AM2002/066 and NPCF2939); test: Antifungal activity (CLSI M38-A2 micro-broth dilution) and MFC; type: cell-based; settings: for MIC / A. fumigatus MIC100: Table 5, average of two strains, 48 h at 30° C.; for MIC: read-out: A. fumigatus MIC100
Experimental: (§1) The fungal strains A. fumigatus (AM2002/066 and NPCF2939), A. flavus (01-1554 and NPCF7117) and A. niger (01-1494 and NCPF2022) were obtained from the National Collection of Pathogenic Fungi (NPCF) or American Type Culture Collection (ATCC). Fungal strains were grown on SAB slopes for 72 h at 30° C. before experimental use. C. albicans strain SC5314 was purchased from ATCC and grown overnight on SAB slopes at 30° C. before experimental use.
(§2) The antifungal activity of peptides was examined using the conditions of the Clinical Laboratory Standards Institute document M38-A2. Peptide antifungal activity was assessed by micro-broth dilutions with a serial two-fold dilution of test compound prepared in a 96 well plate from 0 to maximum concentration to be tested (here 2× concentration required, 250 μg/ml). Fungal suspensions were prepared by flooding slopes with PBS and filtering through gauze to collect spores. The suspension was then adjusted to a density of 2×10^4 colony-forming units/ml in 2× culture medium (RPMI 1640, 0.165 M MOPS, pH 7.4 with L-glutamine, without NaHCO3 medium) and an equal volume was added to the different peptide concentrations in the 96 well plate. Plates where incubated at 30° C. for 48 h before growth inhibition was determined by measuring absorbance at 530 nm (Biotek Powerwave). Antifungal activity was defined by the minimum inhibitory concentration (MIC), the concentration at which no growth was observed.
(§3) For examining the minimum fungicidal concentration (MFC) 10 μl of fungal and peptide suspension was transferred from every well to the corresponding well in a sterile 96-well plate containing fresh culture medium (RPMI-1640, 0.165 M MOPS, pH 7.4 with L-glutamine, without NaHCO3 medium). Aspergillus was then incubated for a further 48 h after which absorbance was measured at 530 nm. MFC was defined as the concentration at which no growth was observed.

A549 cells = settings: lipid alone at 200 μg/ml
Experimental: The cell lines A549 (Human Lung Adenocarcinoma Epithelial Cell Line) and HepG2 (Human Hepatocellular Carcinoma Cell Line) were purchased from ATCC. A549 cells were maintained in F-12K medium (Gibco) containing 10% foetal bovine serum (Life Technologies) and 1% penicillin/streptomycin (Life Technologies) and HepG2 cells were maintained in Dulbecco's modified eagles medium (Gibco) containing 10% foetal bovine serum (Life Technologies), penicillin/streptomycin (Life Technologies) and 1% 0.01 mg/ml human transferrin (Sigma). Both were incubated at 37° C. with 5% CO2 until cells reached >80% confluence before splitting or experimental use.
Before exposure to peptides, the plate was incubated at 37° C. with 5% CO2 overnight to allow cells adhere. […] Medium was removed from the plate containing cells and peptide dilutions were transferred to cells and incubated for a further 3 h at 37° C. with 5% CO2. Cytotoxicity was determined by LIVE/DEAD® Viability/Cytotoxicity kit (Invitrogen Life Technologies), a working solution of 2 μM calcein AM and 4 μM EthD-1 and in conjunction Alamar Blue at a final concentration of 10% was added to the wells. Cells without peptides were the negative control and 1% DMSO was the positive control. Cells were incubated for 3 h again at 37° C. with 5% CO2.

[3] = test system: human red blood cells (hRBC); test: Haemolysis of human red blood cells; settings: lipid alone at 200 μg/ml
Experimental: Peptides were tested for their haemolytic activity against human red blood cells (hRBC). Fresh hRBCs collected in BD Vacutainer® tubes with EDTA were rinsed 3 times with PBS (pH 7.4) by centrifugation for 10 min at 800 g and resuspended, 1 in 10 diluted with PBS. […] Release of haemoglobin was then calculated by transferring supernatant to a flat bottomed 96-well plate and measuring absorbance at 578 nm. hRBCs with no peptides added and H2O provided the controls.

C. albicans SC5314 [4] = type: cell-based
Experimental: 1×RPMI-1640 Buffered with Citrate Phosphate Buffer
Citrate phosphate buffer was prepared by mixing 0.1 M citric acid and 0.2 M dibasic sodium phosphate dodecahydrate in the proportions indicated in the Table 2 and the volume adjusted to 90 ml with dH2O.
pH buffered medium was prepared by dissolving 1.04 g RPMI-1640 premix powder in 10 ml citrate phosphate buffer. The volume was then adjusted to 40 ml with dH2O and the pH adjusted by addition of the acid or base. The volume was adjusted to 50 ml with dH2O. The medium was then filter sterilized by vacuum filtration through a 0.2 μm filter and stored at 4° C. and kept for up to 2 weeks.
The pH of RPMI-1640 was altered, using citrate phosphate buffer, to reflect the more acidic pH environment in the oral cavity. NP319 and NP377 were active against C. albicans SC5314 from pH 5.5-7.0 (Table 2). For all AMPs tested the optimum pH for activity was pH 5.5. NP377 maintained activity at 2 μg/ml from pH 5.5-7 with reduced activity at pH 5.

[5] = test system: A. niger (01-1494 and NCPF2022); test: Antifungal activity (CLSI M38-A2 micro-broth dilution) and MFC; type: cell-based; settings: Table 5, average of two strains, 48 h at 30° C.; for MIC: Aspergillus niger, NCPF2022, read-out: A. niger MIC100
Experimental: as §1, §2, §3

[6] = test system: A. flavus (01-1554 and NPCF7117); test: as above; type: cell-based; settings: Table 5, average of two strains, 48 h at 30° C.; for MIC: Aspergillus flavus, read-out: A. flavus MIC100
Experimental: as §1, §2, §3

C. albicans SC5314 [7] = type: cell-based; settings: RPMI-1640 and 25% plasma, 24 h data
Experimental: A peptide “master” plate was prepared by the addition of 200 μl of the 20 mg/ml stock to column 11 on a microtitre plate. One hundred microliters of sterile water was added to the remaining wells. Serial two-fold dilutions of the peptides were carried out across the plate from right to left. From the “master” plate, 25 μl of peptides were added to corresponding wells on three “working” plates. To each well on the “working” plate, 25 μl human plasma was added, resulting in the halving of both the concentration of the peptide in the working plate and human plasma. Column 12 contained the controls.
An overnight culture of C. albicans SC5314 was grown at 30° C. on Sabouraud dextrose agar and the cells were washed from the surface of the agar and diluted to the equivalent of the 0.5 MacFarland standard. A further 1:50 dilution of the cells into 2×RPMI-1640 was carried out, and 50 μl of the cell suspension was added to each well of the plate. […] Plates were incubated at 30° C. for 48 h with growth inhibition determined by measuring absorbance at 530 nm at 0 h, 24 h and 48 h on a BioTek PoweWave. Antifungal activity was defined by the minimum inhibitory concentration (MIC), the concentration at which no growth was observed.

C. albicans SC5314 [8] = type: cell-based; settings: RPMI-1640, 48 h data
Experimental: The purity of the peptide was taken into account during the preparation to ensure preparation of the correct concentration. Peptides solutions were stored at −20° C. until required.
The antifungal activity of the peptides was based on that of the Clinical Laboratory Standards Institute document M27-A3. A serial two-fold dilution of peptide was prepared across a 96-well microtitre plate with concentration ranging from 2 mg/ml to […]; upon addition of the cells these concentrations shall be halved, with additional wells lacking peptide as a 0 mg/ml control. An addition control lacking culture was also prepared.
To prepare the fungal inoculum, an overnight culture of C. albicans SC5314 was grown at 30° C. on Sabouraud dextrose agar. Cells were washed from the surface of the agar and diluted to the equivalent of the 0.5 MacFarland standard. A further 1:50 dilution of the cells into 2×RPMI-1640 was carried out, and an equal volume was added to the different peptide concentrations in the microtitre plate. To measure the metabolic activity of the cells, 10 μl of a 0.25% solution of resazurin was added to each well. Plates were incubated in the dark at 30° C. for 48 h with growth inhibition determined by measuring absorbance at 530 nm/590 nm at 0 h, 24 h and 48 h on a BioTek PoweWave. Antifungal activity was defined by the minimum inhibitory concentration (MIC), the concentration at which no growth was observed.

[9] = neutral pH, no saliva, 24 h incubation at 37° C.

Molecule: dHdHdRdRdRdRdRdRdRdRdRdRdRdRdR-CONH [NP376]
- MIC100 (C. albicans SC5314 [1]; [9]): 2 µg/mL

Molecule: CCCCCC(=O)O [Hexanoic (C6), Hexanoic]
- % Growth Inhibition of A. fumigatus at 48 h ([2]; lipid alone at 200 μg/ml, 48 h): 50%
- % A549 Cell Death at 3 h (A549 cells): 0%
- % Haemolytic Activity at 3 h [3]: 40%

Molecule: C[C@@H]1[C@H](O)[C@@H](C)/C=C/C=C/CC/C=C/C=C/C=C/C=C/C(O[C@H]2O[C@H](C)[C@@H](O)[C@H](N)[C@@H]2O)CC2O[C@](O)(CC(O)C(O)CCC(O)CC(O)CC(O)CC(=O)O[C@H]1C)CC(O)C2C(=O)O (stereo partly shown) [Nystatin]
- MIC50 (C. albicans SC5314 [4]; pH 4.5): 2 µg/mL (≈ 2.16 µM)
- MIC100 (C. albicans SC5314 [4]; pH 4.5): 2 µg/mL (≈ 2.16 µM)
- MIC50 (C. albicans SC5314 [4]; pH 5): 1 µg/mL (≈ 1.08 µM)
- MIC100 (C. albicans SC5314 [4]; pH 5): 1 µg/mL (≈ 1.08 µM)
- MIC50 (C. albicans SC5314 [4]; pH 5.5): 1 µg/mL (≈ 1.08 µM)
- MIC100 (C. albicans SC5314 [4]; pH 5.5): 1 µg/mL (≈ 1.08 µM)
- MIC50 (C. albicans SC5314 [4]; pH 6): 1 µg/mL (≈ 1.08 µM)
- MIC100 (C. albicans SC5314 [4]; pH 6): 1 µg/mL (≈ 1.08 µM)
- MIC50 (C. albicans SC5314 [4]; pH 6.5): 1 µg/mL (≈ 1.08 µM)
- MIC100 (C. albicans SC5314 [4]; pH 6.5): 1 µg/mL (≈ 1.08 µM)
- MIC50 (C. albicans SC5314 [4]; pH 7): 1 µg/mL (≈ 1.08 µM)
- MIC100 (C. albicans SC5314 [4]; pH 7): 1 µg/mL (≈ 1.08 µM)

Molecule: CC(=O)O [Acetic (C2), Acetic]
- inhibition at 200 µg/mL ([2]; Aspergillus fumigatus, lipid alone at 200 μg/ml, 48 h, read-out: % Growth Inhibition of A. fumigatus at 48 h): 5%

Molecule: OC(Cn1cncn1)(Cn1cncn1)c1ccc(F)cc1F [Fluconazole]
- MIC [5]: 64 µg/mL (≈ 209 µM)
- MIC ([2]; Aspergillus fumigatus): 64 µg/mL (≈ 209 µM)
- MIC [6]: 64 µg/mL (≈ 209 µM)

Molecule: CCCC(=O)O [Butanoic (C4), Butanoic]
- % Growth Inhibition of A. fumigatus at 48 h ([2]; lipid alone at 200 μg/ml, 48 h): 35%
- % A549 Cell Death at 3 h (A549 cells): 0%
- % Haemolytic Activity at 3 h [3]: 30%

Molecule: C[C@@H]1[C@H](O)[C@@H](C)/C=C/C=C/C=C/C=C/C=C/C=C/C=C/[C@H](O[C@@H]2O[C@H](C)[C@@H](O)[C@H](N)[C@@H]2O)C[C@@H]2O[C@](O)(C[C@@H](O)C[C@@H](O)[C@H](O)CC[C@@H](O)C[C@@H](O)CC(=O)O[C@H]1C)C[C@H](O)[C@H]2C(=O)O [Amphotericin B]
- A. niger MIC100 [5]: <1 µg/mL
- A. fumigatus MIC100 [2]: 1 µg/mL
- A. flavus MIC100 [6]: 1.5 µg/mL

Molecule: CCCCCCCC(=O)O [Octanoic (C8), Octanoic]
- % Growth Inhibition of A. fumigatus at 48 h ([2]; lipid alone at 200 μg/ml, 48 h): 60%
- % A549 Cell Death at 3 h (A549 cells): 5%

Molecule: CCCCCCCCCC(=O)O [Decanoic (C10), Decanoic]
- % Growth Inhibition of A. fumigatus at 48 h ([2]; lipid alone at 200 μg/ml, 48 h): 20%
- % A549 Cell Death at 3 h (A549 cells): 25%
- % Haemolytic Activity at 3 h [3]: 10%

Molecule: CCC(C)n1ncn(-c2ccc(N3CCN(c4ccc(OCC5COC(Cn6cncn6)(c6ccc(Cl)cc6Cl)O5)cc4)CC3)cc2)c1=O (stereo not shown) [Itraconcazole]
- A. niger MIC100 [5]: <1 µg/mL
- A. fumigatus MIC100 [2]: <1 µg/mL
- A. flavus MIC100 [6]: 1 µg/mL

Molecule: Poly-L-Arg, HCl salt [NP121]
- MIC80 (C. albicans SC5314 [1]; [9]): 64 µg/mL

Molecule: CCCCCCCCCCCCCC(=O)O [Tetradecanoic (C14), Tetradecanoic]
- % Growth Inhibition of A. fumigatus at 48 h ([2]; lipid alone at 200 μg/ml, 48 h): 15%
- % A549 Cell Death at 3 h (A549 cells): 0%
- % Haemolytic Activity at 3 h [3]: 20%

Molecule: Palm-dRdRdRdRdRdRdRdRdRdRdRdR-CONH [NP375]
- MIC100 (C. albicans SC5314 [1]; [9]): 16 µg/mL

Molecule: CCCCCCCCCCCCCCCC(=O)O [Palmitic (C16), Palmitic]
- % Growth Inhibition of A. fumigatus at 48 h ([2]; lipid alone at 200 μg/ml, 48 h): 0%
- % A549 Cell Death at 3 h (A549 cells): 10%

Molecule: CC[C@H](C)C[C@H](C)CCCCCCCCC(=O)N[C@H]1C[C@@H](O)[C@@H](NCCN)NC(=O)[C@@H]2[C@@H](O)CCN2C(=O)[C@H]([C@H](O)CCN)NC(=O)[C@H]([C@H](O)[C@@H](O)c2ccc(O)cc2)NC(=O)[C@@H]2C[C@@H](O)CN2C(=O)[C@H]([C@@H](C)O)NC1=O [Caspofungin]
- MIC [5]: 16 µg/mL (≈ 14.6 µM)
- MIC ([2]; Aspergillus fumigatus): 64 µg/mL (≈ 58.5 µM)
- MIC [6]: 128 µg/mL (≈ 117 µM)

Molecule: RRRFRFRFRFRRR [NP466]
- MIC90 (C. albicans SC5314 [1]; SC5314, 24 h): 32 µg/mL
- MIC100 (C. albicans SC5314 [1]; [9]): did not achieve a MIC100

Molecule: N=C(N)NCCC[C@H](NC(=O)[C@H](CCCNC(=N)N)NC(=O)[C@H](CCCNC(=N)N)NC(=O)[C@H](CCCNC(=N)N)NC(=O)[C@H](CCCNC(=N)N)NC(=O)[C@H](CCCNC(=N)N)NC(=O)[C@H](CCCNC(=N)N)NC(=O)[C@H](CCCNC(=N)N)NC(=O)[C@H](CCCNC(=N)N)NC(=O)[C@H](CCCNC(=N)N)NC(=O)[C@H](CCCNC(=N)N)NC(=O)[C@H](CCCNC(=N)N)NC(=O)[C@H](CCCNC(=N)N)NC(=O)[C@@H](N)CCCNC(=N)N)C(=O)O [Novamycin]
- MIC50 (C. albicans SC5314 [7]): 78.1 µg/mL (≈ 35.4 µM)
- MIC80 (C. albicans SC5314 [7]): 156.25 to 312.5 µg/mL
- MIC100 (C. albicans SC5314 [7]): 312.5 µg/mL (≈ 142 µM)
- MIC50 (C. albicans SC5314 [8]): <2 µg/mL
- MIC80 (C. albicans SC5314 [8]): 2 µg/mL (≈ 0.907 µM)
- MIC100 (C. albicans SC5314 [8]): 4 µg/mL (≈ 1.81 µM)

Molecule: CCCCCCCCCCCC(=O)O [Dodecanoic (C12), Dodecanoic]
- % Growth Inhibition of A. fumigatus at 48 h ([2]; lipid alone at 200 μg/ml, 48 h): 45%
- % A549 Cell Death at 3 h (A549 cells): 20%
- % Haemolytic Activity at 3 h [3]: 20%
